Results from US20100298141A1, “SUBSTITUTED PYRIDINE N-OXIDE HERBICIDES” (E. I. DU PONT DE NEMOURS AND COMPANY, priority 2007, published 2010).

Key:
[1] = system: barnyardgrass; assay: Test A pre-/postemergence greenhouse test; assay type: in vivo, Echinochloa crus-galli; conditions: for Barnyardgrass plant response rating: 0 to 100 scale; for Plant response rating, Barnyardgrass: 0 to 100 scale where 0 is no effect and 100 is complete control
Method in brief: (§1)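 Pots of loam–sand soil sown with the test species are sprayed preemergence on the soil surface; emerged seedlings (1–2 leaves, 2–10 cm) are sprayed postemergence at the same time. The vehicle is a non-phytotoxic solvent mixture with surfactant. Injury is scored visually after ~10 d in greenhouse.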

[2] = system: redroot pigweed; assay: Test A pre-/postemergence greenhouse test; assay type: in vivo, Amaranthus retroflexus; conditions: for Pigweed plant response rating: 0 to 100 scale; for Plant response rating, Pigweed: 0 to 100 scale where 0 is no effect and 100 is complete control
Method in brief: as §1

[3] = system: velvetleaf; assay: Test A pre-/postemergence greenhouse test; assay type: in vivo, Abutilon theophrasti; conditions: for Velvetleaf plant response rating: 0 to 100 scale; for Plant response rating, Velvetleaf: 0 to 100 scale where 0 is no effect and 100 is complete control
Method in brief: as §1

[4] = system: downy brome; assay: Test C pre-/postemergence test; assay type: in vivo, Bromus tectorum; conditions: for Plant response rating (0 to 100), Bromegrass, Downy: 250 g ai/ha
Method in brief: (§2)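 Seeds were planted and treated preemergence with test chemical in a non-phytotoxic solvent mixture containing surfactant. Postemergence applications of the same formulation went onto plants 2 to 18 cm tall (1- to 4-leaf stage). A dash marks no test result.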

[5] = system: green foxtail; assay: Test C pre-/postemergence test; assay type: in vivo, Setaria viridis; conditions: for Plant response rating (0 to 100), Foxtail, Green: 250 g ai/ha
Method in brief: as §2

[6] = system: wild oat; assay: Test C pre-/postemergence test; assay type: in vivo, Avena fatua; conditions: for Plant response rating (0 to 100), Oat, Wild: 250 g ai/ha
Method in brief: as §2

[7] = system: Surinam grass; assay: Test C pre-/postemergence test; assay type: in vivo, Brachiaria decumbens; conditions: for Surinam Grass plant response rating: preemergence, scale 0 (no effect) to 100 (complete control); for Plant response rating (0 to 100), Surinam Grass: Preemergence, 250 g ai/ha
Method in brief: as §2

[8] = system: cocklebur; assay: Test C pre-/postemergence test; assay type: in vivo, Xanthium strumarium; conditions: for Plant response rating (0 to 100), Cocklebur: 250 g ai/ha
Method in brief: as §2

[9] = system: crabgrass; assay: Test C pre-/postemergence test; assay type: in vivo, Digitaria sanguinalis; conditions: for Plant response rating (0 to 100), Crabgrass, Large: 250 g ai/ha
Method in brief: as §2

[10] = system: giant foxtail; assay: Test C pre-/postemergence test; assay type: in vivo, Setaria faberii; conditions: for Plant response rating (0 to 100), Foxtail, Giant: 250 g ai/ha
Method in brief: as §2

[11] = system: johnsongrass; assay: Test C pre-/postemergence test; assay type: in vivo, Sorghum halepense; conditions: for Plant response rating (0 to 100), Johnsongrass: 250 g ai/ha
Method in brief: as §2

[12] = system: kochia; assay: Test C pre-/postemergence test; assay type: in vivo, Kochia scoparia; conditions: for Plant response rating (0 to 100), Kochia: 250 g ai/ha
Method in brief: as §2

[13] = system: lambsquarters; assay: Test C pre-/postemergence test; assay type: in vivo, Chenopodium album; conditions: for Plant response rating (0 to 100), Lambsquarters: 250 g ai/ha
Method in brief: as §2

[14] = system: eastern black nightshade; assay: Test C pre-/postemergence test; assay type: in vivo, Solanum ptycanthum
Method in brief: as §2

[15] = system: common ragweed; assay: Test C pre-/postemergence test; assay type: in vivo, Ambrosia elation; conditions: for Plant response rating (0 to 100), Ragweed: 250 g ai/ha
Method in brief: as §2

[16] = system: velvetleaf; assay: Test C pre-/postemergence test; assay type: in vivo, Abutilon theophrasti; conditions: for Velvetleaf plant response rating: preemergence, scale 0 (no effect) to 100 (complete control); for Plant response rating (0 to 100), Velvetleaf: Preemergence, 250 g ai/ha
Method in brief: as §2

[17] = system: rice; assay: Test C flooded paddy test; assay type: in vivo, Oryza sativa; conditions: Flood
Method in brief: (§3)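 In-water treatment: compound dosed into 3 cm flood over soil, water level unchanged throughout. Controls run alongside; visual assessment at day 13–15.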

[18] = system: duck salad; assay: Test C flooded paddy test; assay type: in vivo, Heteranthera limosa; conditions: Flood
Method in brief: as §3

[19] = Postemergence, 125 g ai/ha, 0 is no effect, 100 is complete control
[20] = Postemergence, 500 g ai/ha, 0 is no effect, 100 is complete control
[21] = Preemergence, 125 g ai/ha, 0 no effect, 100 complete control
[22] = 31 g ai/ha, Preemergence, scale 0 to 100
[23] = 62 g ai/ha, preemergence, scale 0 (no effect) to 100 (complete control)
[24] = preemergence, 125 g ai/ha, scale 0 (no effect) to 100 (complete control)
[25] = 31 g ai/ha, scale 0 to 100 (0 no effect, 100 complete control)
[26] = 62 g ai/ha, scale 0 to 100, 0 no effect, 100 complete control, 13 to 15 days
[27] = 125 g ai/ha, scale 0 to 100, 0 no effect, 100 complete control, 13 to 15 days
[28] = 250 g ai/ha, scale 0 to 100 (0 no effect, 100 complete control)

## Cn1nc(C(F)(F)F)c(C[S+]([O-])c2cccc[n+]2[O-])c1Cl (stereo not drawn) [Compound 8]
[1]; [19]
  Barnyardgrass plant response rating: 80
[1]; [20]
  Barnyardgrass plant response rating: 80
[1]; [21]
  Barnyardgrass plant response rating: 90
[1]; Preemergence, 500 g ai/ha
  Plant response rating, Barnyardgrass: 100
[2]; [19]
  Pigweed plant response rating: 20
[2]; [20]
  Pigweed plant response rating: 60
[2]; [21]
  Pigweed plant response rating: 100
[2]; Preemergence, 500 g ai/ha
  Plant response rating, Pigweed: 100
[3]; [19]
  Velvetleaf plant response rating: 40
[3]; [20]
  Velvetleaf plant response rating: 70
[3]; [21]
  Velvetleaf plant response rating: 70
[3]; Preemergence, 500 g ai/ha
  Plant response rating, Velvetleaf: 80
[4]; [22]
  Bromegrass, Downy plant response rating: 0
[4]; [23]
  Bromegrass, Downy plant response rating: 0
[4]; Preemergence
  Plant response rating (0 to 100), Bromegrass, Downy: 85
[4]; [24]
  Bromegrass, Downy plant response rating: 80
[5]; [22]
  Foxtail, Green plant response rating: 100
[5]; [23]
  Foxtail, Green plant response rating: 100
[5]; Preemergence
  Plant response rating (0 to 100), Foxtail, Green: 100
[5]; [24]
  Foxtail, Green plant response rating: 100
[6]; [22]
  Oat, Wild plant response rating: 0
[6]; [23]
  Oat, Wild plant response rating: 20
[6]; Preemergence
  Plant response rating (0 to 100), Oat, Wild: 60
[6]; [24]
  Oat, Wild plant response rating: 40
[7]; 62 g ai/ha
  Surinam Grass plant response rating: 85
[7]
  Plant response rating (0 to 100), Surinam Grass: 100
[7]; 125 g ai/ha
  Surinam Grass plant response rating: 100
[8]; [22]
  Cocklebur plant response rating: 0
[8]; [23]
  Cocklebur plant response rating: 0
[8]; Preemergence
  Plant response rating (0 to 100), Cocklebur: 5
[8]; [24]
  Cocklebur plant response rating: 0
[9]; [22]
  Crabgrass, Large plant response rating: 90
[9]; [23]
  Crabgrass, Large plant response rating: 100
[9]; Preemergence
  Plant response rating (0 to 100), Crabgrass, Large: 100
[9]; [24]
  Crabgrass, Large plant response rating: 100
[10]; [22]
  Foxtail, Giant plant response rating: 85
[10]; [23]
  Foxtail, Giant plant response rating: 98
[10]; Preemergence
  Plant response rating (0 to 100), Foxtail, Giant: 100
[10]; [24]
  Foxtail, Giant plant response rating: 100
[11]; [22]
  Johnsongrass plant response rating: 80
[11]; [23]
  Johnsongrass plant response rating: 85
[11]; Preemergence
  Plant response rating (0 to 100), Johnsongrass: 100
[11]; [24]
  Johnsongrass plant response rating: 85
[12]; [22]
  Kochia plant response rating: 40
[12]; [23]
  Kochia plant response rating: 45
[12]; Preemergence
  Plant response rating (0 to 100), Kochia: 100
[12]; [24]
  Kochia plant response rating: 100
[13]; [22]
  Lambsquarters plant response rating: 80
[13]; [23]
  Lambsquarters plant response rating: 98
[13]; Preemergence
  Plant response rating (0 to 100), Lambsquarters: 100
[13]; [24]
  Lambsquarters plant response rating: 100
[14]; [22]
  Nightshade plant response rating: 80
[14]; [23]
  Nightshade plant response rating: 85
[14]; Preemergence, 250 g ai/ha
  Plant response rating (0 to 100), Nightshade: 100
[14]; [24]
  Nightshade plant response rating: 100
[15]; [22]
  Ragweed plant response rating: 50
[15]; [23]
  Ragweed plant response rating: 60
[15]; Preemergence
  Plant response rating (0 to 100), Ragweed: 90
[15]; [24]
  Ragweed plant response rating: 60
[16]; 62 g ai/ha
  Velvetleaf plant response rating: 45
[16]
  Plant response rating (0 to 100), Velvetleaf: 100
[16]; 125 g ai/ha
  Velvetleaf plant response rating: 98
[17]; [25]
  Plant response rating, Rice: 0
[17]; [26]
  Plant response rating, Rice: 0
[17]; [27]
  Plant response rating, Rice: 0
[17]; [28]
  Plant response rating, Rice: 20
[18]; [25]
  Plant response rating, Ducksalad: 0
[18]; [26]
  Plant response rating, Ducksalad: 0
[18]; [27]
  Plant response rating, Ducksalad: 50
[18]; [28]
  Plant response rating, Ducksalad: 90

## Cn1nc(C(F)(F)F)c(CS(=O)(=O)c2cccc[n+]2[O-])c1Cl [Compound 9]
[1]; [19]
  Barnyardgrass plant response rating: 80
[1]; [20]
  Barnyardgrass plant response rating: 80
[1]; [21]
  Barnyardgrass plant response rating: 100
[1]; Preemergence, 500 g ai/ha
  Plant response rating, Barnyardgrass: 100
[2]; [19]
  Pigweed plant response rating: 10
[2]; [20]
  Pigweed plant response rating: 60
[2]; [21]
  Pigweed plant response rating: 100
[2]; Preemergence, 500 g ai/ha
  Plant response rating, Pigweed: 100
[3]; [19]
  Velvetleaf plant response rating: 0
[3]; [20]
  Velvetleaf plant response rating: 30
[3]; [21]
  Velvetleaf plant response rating: 50
[3]; Preemergence, 500 g ai/ha
  Plant response rating, Velvetleaf: 60
[4]; [22]
  Bromegrass, Downy plant response rating: 0
[4]; [23]
  Bromegrass, Downy plant response rating: 0
[4]; Preemergence
  Plant response rating (0 to 100), Bromegrass, Downy: 20
[4]; [24]
  Bromegrass, Downy plant response rating: 20
[5]; [22]
  Foxtail, Green plant response rating: 85
[5]; [23]
  Foxtail, Green plant response rating: 100
[5]; Preemergence
  Plant response rating (0 to 100), Foxtail, Green: 100
[5]; [24]
  Foxtail, Green plant response rating: 100
[6]; [22]
  Oat, Wild plant response rating: 0
[6]; [23]
  Oat, Wild plant response rating: 0
[6]; Preemergence
  Plant response rating (0 to 100), Oat, Wild: 55
[6]; [24]
  Oat, Wild plant response rating: 40
[7]
  Plant response rating (0 to 100), Surinam Grass: 100
[7]; 125 g ai/ha
  Surinam Grass plant response rating: 85
[8]; [22]
  Cocklebur plant response rating: 0
[8]; Preemergence
  Plant response rating (0 to 100), Cocklebur: 0
[8]; [24]
  Cocklebur plant response rating: 0
[9]; [22]
  Crabgrass, Large plant response rating: 100
[9]; Preemergence
  Plant response rating (0 to 100), Crabgrass, Large: 100
[9]; [24]
  Crabgrass, Large plant response rating: 100
[10]; [22]
  Foxtail, Giant plant response rating: 85
[10]; Preemergence
  Plant response rating (0 to 100), Foxtail, Giant: 100
[10]; [24]
  Foxtail, Giant plant response rating: 100
[11]; [22]
  Johnsongrass plant response rating: 45
[11]; Preemergence
  Plant response rating (0 to 100), Johnsongrass: 100
[11]; [24]
  Johnsongrass plant response rating: 100
[12]; [22]
  Kochia plant response rating: 0
[12]; Preemergence
  Plant response rating (0 to 100), Kochia: 100
[12]; [24]
  Kochia plant response rating: 100
[13]; [22]
  Lambsquarters plant response rating: 0
[13]; Preemergence
  Plant response rating (0 to 100), Lambsquarters: 100
[13]; [24]
  Lambsquarters plant response rating: 80
[14]; [22]
  Nightshade plant response rating: 80
[14]; [24]
  Nightshade plant response rating: 100
[15]; [22]
  Ragweed plant response rating: 45
[15]; Preemergence
  Plant response rating (0 to 100), Ragweed: 100
[15]; [24]
  Ragweed plant response rating: 90
[16]
  Plant response rating (0 to 100), Velvetleaf: 40
[16]; 125 g ai/ha
  Velvetleaf plant response rating: 0
[17]; [25]
  Plant response rating, Rice: 10
[17]; [26]
  Plant response rating, Rice: 40
[17]; [27]
  Plant response rating, Rice: 70
[17]; [28]
  Plant response rating, Rice: 70
[18]; [25]
  Plant response rating, Ducksalad: 0
[18]; [26]
  Plant response rating, Ducksalad: 65
[18]; [27]
  Plant response rating, Ducksalad: 85
[18]; [28]
  Plant response rating, Ducksalad: 90
